Assay results as given in publication PMC8401167, “Point Mutations and Cytochrome P450 Can Contribute to Resistance to ACCase-Inhibiting Herbicides in Three Phalaris Species” (Plants, 2021).
Like-named read-outs stand apart in the source and are kept apart here.

Assays:
Experiment in all cases: […]bicarbonate incorporation into malonyl-CoA
Format in all cases: biochemical
[1] = target: T1, ACCase (Phalaris brachystachys); conditions: 1.5 mM ATP, 5 mM acetyl-CoA, 5 mM MgCl2, 15 mM NaH14CO3, pH 8.3, 34 °C, S biotype, read-out: I50
T1 construct: cytosolic form not separated

[2] = target: T2, ACCase (Phalaris paradoxa); conditions: 1.5 mM ATP, 5 mM acetyl-CoA, 5 mM MgCl2, 15 mM NaH14CO3, pH 8.3, 34 °C, S biotype, read-out: I50
T2 construct: cytosolic form not separated

[3] = target: T1, ACCase (Phalaris brachystachys); conditions: 1.5 mM ATP, 5 mM acetyl-CoA, 5 mM MgCl2, 15 mM NaH14CO3, pH 8.3, 34 °C, R biotype (zygosity not given), stated gain, read-out: I50
ACCase (Phalaris minor) = target: T3, ACCase (Phalaris minor); conditions: 1.5 mM ATP, 5 mM acetyl-CoA, 5 mM MgCl2, 15 mM NaH14CO3, pH 8.3, 34 °C, S biotype, read-out: I50
T3 construct: cytosolic form not separated

[4] = table labels herbicide diclofop-methyl, methods say DM acid

Row | SMILES | IC50 [1, 4] [µM] | IC50 [2, 4] [µM] | IC50 [3, 4] [µM] | IC50 (ACCase (Phalaris minor); [4]) [µM] | IC50 [1] [µM] | IC50 [2] [µM] | IC50 [3] [µM] | IC50 (ACCase (Phalaris minor)) [µM]
1 | CC(Oc1ccc(Oc2ccc(Cl)cc2Cl)cc1)C(=O)O (stereo not drawn) [DM acid] | 0.32 ± 0.05 | 0.59 ± 0.23 | 6.65 ± 0.78 | 0.85 ± 0.03 |  |  |  | 
2 | CCCC(=NOCC)C1=C(O)CC(C2CCCSC2)CC1=O (stereo not drawn) [cycloxydim] |  |  |  |  | 0.22 ± 0.02 | 0.46 ± 0.06 | 2.4 ± 0.34 | 0.67 ± 0.91
3 | CCc1cc(C)cc(CC)c1-c1c(OC(=O)C(C)(C)C)n2n(c1=O)CCOCC2 [pinoxaden] |  |  |  |  | 0.78 ± 0.01 | 0.66 ± 0.09 | 14.4 ± 1.9 | 0.59 ± 0.07
